These results are taken from ChEMBL document CHEMBL1122103 (J Med Chem, 1982).

The IC50 is the concentration needed to halve the response being measured. A higher IC50 goes with a need for much substance. A word on the Km: it is the substrate concentration at which the rate is half of its maximum. As a reminder, the Ki is the equilibrium dissociation constant of an inhibitor or competing ligand from its target. Lower therefore signals higher affinity. For orientation: ILS means how much longer treated animals lived than controls.

The test system of assay [1] is L1210. In words: In vitro inhibition of L1210 cell growth in rodent neoplastic cells. The class given is functional, cell-based. As to conditions: Mus musculus.
Assay [2] deals with L1210. In words: (§1) In vitro membrane transport activity in L1210 cells in rodent. The class given is functional, cell-based. As to conditions: Mus musculus.
Assay [3] has as its system Ehrlich. The assay is described as follows: In vitro membrane transport activity in Ehrlich cells in rodent. Type of assay: functional, cell-based. As to conditions: Mus musculus.
Assay [4] has as its system L1210. The description is as §1. The class given is functional, Mus musculus.
Assay [5] concerns the target T1, Dihydrofolate reductase (Mus musculus, UniProt P00375).
T1 sequence (P00375 whole entry): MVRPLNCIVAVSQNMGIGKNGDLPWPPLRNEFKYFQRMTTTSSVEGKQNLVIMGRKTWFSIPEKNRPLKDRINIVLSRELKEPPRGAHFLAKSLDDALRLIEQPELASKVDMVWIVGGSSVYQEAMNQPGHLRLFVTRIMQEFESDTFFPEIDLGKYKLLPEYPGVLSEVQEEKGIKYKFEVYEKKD
In words: In vitro inhibitory activity against L1210 dihydrofolate reductase in rodent neoplastic cells.

The target of assay [6] is Dihydrofolate reductase (Lactobacillus casei, UniProt P00381). The assay is described as follows: In vitro inhibition of Dihydrofolate reductase activity against Lactobacillus casei enzyme. Type of assay: functional, Lacticaseibacillus casei.
Sequence of Dihydrofolate reductase (Lactobacillus casei, UniProt P00381) (P00381 whole entry): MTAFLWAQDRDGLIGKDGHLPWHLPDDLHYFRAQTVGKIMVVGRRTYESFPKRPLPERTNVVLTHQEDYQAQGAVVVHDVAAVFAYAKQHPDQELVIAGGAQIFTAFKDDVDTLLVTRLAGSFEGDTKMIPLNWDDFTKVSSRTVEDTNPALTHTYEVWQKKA
In assay [7] the test system is Lacticaseibacillus casei. The assay is described as follows: In vitro antibacterial activity against MTX-resistance Lactobacillus casei. The class given is functional, organism-based.
The test system of assay [8] is Enterococcus faecium. In words: In vitro antibacterial activity against MTX-resistant Streptococcus faecium. Type of assay: functional, organism-based.
Assay [9] is filed under the species Mus musculus. The assay is described as follows: In vitro membrane transport activity in S180 ascites tumor in rodent. Type of assay: functional.
Assay [10] has as its target T2, Thymidylate synthase (Lactobacillus casei, UniProt P00469).
T2 sequence (P00469 whole entry): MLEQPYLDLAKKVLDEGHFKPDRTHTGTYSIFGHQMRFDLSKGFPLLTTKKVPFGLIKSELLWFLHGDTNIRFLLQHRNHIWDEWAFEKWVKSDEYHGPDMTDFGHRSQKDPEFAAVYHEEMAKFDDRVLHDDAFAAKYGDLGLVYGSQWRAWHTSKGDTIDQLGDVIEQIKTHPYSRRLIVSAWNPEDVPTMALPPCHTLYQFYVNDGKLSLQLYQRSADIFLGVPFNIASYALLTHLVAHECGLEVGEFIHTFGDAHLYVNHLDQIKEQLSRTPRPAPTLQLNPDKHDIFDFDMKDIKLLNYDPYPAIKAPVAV
The assay is described as follows: In vitro inhibition of activity against Lactobacillus casei enzyme thymidylate synthase. The class given is functional, Lacticaseibacillus casei.

Assay [11] deals with Lacticaseibacillus casei. In words: In vitro antibacterial activity against Lactobacillus casei (ATCC 7469). The class given is functional, organism-based.
Assay [12] concerns L1210. In words: In vitro for antitumor activity against L1210 leukemia in mice at a dose of 144 mg/Kg(sc) was reported as percentage increase in life span. As to conditions: Mus musculus. The class given is functional.
The species entered for assay [13] is Mus musculus. The assay is described as follows: In vitro membrane transport activity in neoplastic epithelial cells of rodent gut. As to conditions: Epithelial cell. The class given is functional, cell-based.
The subject of assay [14] is L1210. The assay is described as follows: In vitro for antitumor activity against L1210 leukemia in mice at a dose of 144 mg/Kg(sc) was reported as maximum survival time. Type of assay: functional, Mus musculus.
For assay [15], the system named is L1210. The assay is described as follows: In vitro for antitumor activity against L1210 leukemia in mice at a dose of 144 mg/Kg(sc) was reported as weight at termination of the therapy. The class given is functional, Mus musculus.
Assay [16] concerns Enterococcus faecium. In words: In vitro antibacterial activity against Streptococcus faecium (ATCC 8043). Type of assay: functional, organism-based.
In assay [17] the test system is L1210. The assay is described as follows: In vitro for antitumor activity against L1210 leukemia in mice at a dose of 288 mg/Kg(sc) was reported as maximum survival time. Type of assay: functional, Mus musculus.
In assay [18] the test system is L1210. The assay is described as follows: In vitro for antitumor activity against L1210 leukemia in mice at a dose of 288 mg/kg (s.c.) was reported as percentage increase in life span. Type of assay: functional. As to conditions: Mus musculus, L1210, sc.
The test system of assay [19] is L1210. The assay is described as follows: In vitro for antitumor activity against L1210 leukemia in mice at a dose of 288 mg/Kg(sc) was reported as weight at termination of the therapy. Type of assay: functional, Mus musculus.
Assay [20] in a line: In vitro for antitumor activity against S180 Ascites tumor in mice at a dose of 6 mg/Kg (sc) was reported as weight at termination of the therapy. The class given is functional, Mus musculus.
Assay [21] deals with L1210. In words: In vitro for antitumor activity against L1210 leukemia in mice at a dose of 15 mg/Kg(sc) was reported as weight at termination of the therapy. Type of assay: functional, Mus musculus.
A short description of assay [22]: In vitro antitumor activity against S180 Ascites tumor in mice at a dose of 6 mg/Kg (sc) was reported as maximum survival time. The class given is functional, Mus musculus.
Assay [23] in a line: In vitro antitumor activity against S180 Ascites tumor in mice at a dose of 15 mg/Kg (sc) was reported as maximum survival time. Type of assay: functional, Mus musculus.
Assay [24] concerns L1210. The assay is described as follows: In vitro for antitumor activity against L1210 leukemia in mice at a dose of 15 mg/Kg(sc) was reported as percentage increase in life span. Type of assay: functional. Conditions: Mus musculus.
Assay [25] relates to L1210. The assay is described as follows: In vitro for antitumor activity against L1210 leukemia in mice at a dose of 15 mg/Kg(sc) was reported as maximum survival time. The class given is functional, Mus musculus.
Assay [26] in a line: In vitro for antitumor activity against S180 Ascites tumor in mice at a dose of 15 mg/Kg (sc) was reported as percentage increase in life span. Type of assay: functional. As to conditions: Mus musculus, S-180, sc.
The nature of assay [27]: In vitro for antitumor activity against S180 Ascites tumor in mice at a dose of 6 mg/Kg (sc) was reported as percentage increase in life span. The class given is functional. Conditions: Mus musculus, S-180, sc.
Assay [28] is described as follows: In vitro for antitumor activity against S180 Ascites tumor in mice at a dose of 15 mg/Kg (sc) was reported as weight at termination of the therapy. Type of assay: functional, Mus musculus.
Assay [29] is described as follows: In vitro for antitumor activity against S180 Ascites tumor in mice at a dose of 288 mg/Kg (sc) was reported as weight at termination of the therapy. The class given is functional, Mus musculus.
A short description of assay [30]: In vitro antitumor activity against S180 Ascites tumor in mice at a dose of 36 mg/Kg (sc) was reported as maximum survival time. Type of assay: functional, Mus musculus.
A short description of assay [31]: In vitro antitumor activity against S180 Ascites tumor in mice at a dose of 288 mg/Kg (sc) was reported as maximum survival time. Type of assay: functional, Mus musculus.
Assay [32] can be described thus: In vitro for antitumor activity against S180 Ascites tumor in mice at a dose of 288 mg/Kg (sc) was reported as percentage increase in life span. The class given is functional. Conditions: Mus musculus, S-180, sc.
Assay [33] is described as follows: In vitro for antitumor activity against S180 Ascites tumor in mice at a dose of 36 mg/Kg (sc) was reported as weight at termination of the therapy. The class given is functional, Mus musculus.
The test system of assay [34] is L1210. In words: In vitro for antitumor activity against L1210 leukemia in mice at a dose of 288 mg/Kg(sc) was reported as percentage increase in life span. As to conditions: Mus musculus. The class given is functional.
A short description of assay [35]: In vitro for antitumor activity against S180 Ascites tumor in mice at a dose of 36 mg/Kg (sc) was reported as percentage increase in life span. Type of assay: functional. As to conditions: Mus musculus, S-180, sc.

Consider `Nc1nc(N)c2nc(CNc3ccc(C(=O)N[C@@H](CCC(=O)O)C(=O)O)cc3)cnc2n1` [AMINOPTERIN], for which, in assay [1], the IC50 was 0.0012 µM. Moreover, the Km in assay [2] worked out at 1.3 µM; in [3], 2.1 µM. In addition, in assay [4], the k worked out at 0.21 min⁻¹. Besides, the Ki in assay [5] is 4 pM.
Consider `CCCCCCCCN(Cc1cnc2nc(N)nc(N)c2n1)c1ccc(C(=O)NC(CCC(=O)O)C(=O)O)cc1` (stereo unspecified), for which the IC50 in [6] is 0.012 µM; in [7], more than 10000 µM; in assay [1] it was 0.217 µM; in assay [8], 670 µM; in assay [10], more than 80 µM; in assay [11] it was 0.017 µM. For the same compound, 0.41 µM corresponded to half-maximal inhibition in assay [16] (IC50). For the same compound, the Michaelis-Menten constant (Km) in assay [2] is 5.6 µM; in assay [3], 1.3 µM; in assay [9], 1.8 µM; in assay [13], 1290 µM. Besides, the ILS at 144 mg/kg in assay [12] was 16%. For the same compound, the MST in assay [14] amounted to 8.1 days. Also, the k in [4] was determined as 0.89 min⁻¹. The compound also had a Ki in [5] of 17500 pM. Moreover, the Weight at term in assay [15] worked out at 22.7 g.
For the compound `CCCN(Cc1cnc2nc(N)nc(N)c2n1)c1ccc(C(=O)NC(CCC(=O)O)C(=O)O)cc1` (stereo unspecified), the MST in assay [17] worked out at 15.8 days. In [1], this compound came in with an IC50 of 0.0022 µM. The Km in assay [2] turned out to be 3.2 µM; in assay [3], 4.2 µM; in assay [9], 3.5 µM; in [13], 422 µM. This compound came in with an ILS at 288 mg/kg in assay [18] of 133%. For the same compound, the Weight at term in assay [19] stood at 21.3 g. This compound also came in with a k in assay [4] of 0.26 min⁻¹. This compound also showed a Ki in [5] of 3 pM.
`CN(Cc1cnc2nc(N)nc(N)c2n1)c1ccc(C(=O)N[C@@H](CCC(=O)O)C(=O)O)cc1` [METHOTREXATE]: the Weight at term in assay [20] turned out to be 24.1 g; in assay [21] it was 19.8 g; in assay [28] it was 24.4 g. The IC50 in assay [7] was more than 10000 µM; in assay [8], 7200 µM; in assay [11], 0.013 µM; in [16] it was 0.09 µM. Moreover, the Km in assay [2] stood at 3.7 µM; in [3], 10.1 µM; in [9], 11.4 µM; in assay [13], 339 µM. Moreover, the MST in assay [22] came out at 17.8 days; in assay [23] it was 21.4 days; in [25], 17.1 days. Moreover, the ILS at 15 mg/kg is 152% in [24] and 82% in assay [26]. In addition, the k in assay [4] was 0.23 min⁻¹. Besides, in assay [27], the ILS at 6 mg/kg was determined as 78%.
Consider `C#CCN(Cc1cnc2nc(N)nc(N)c2n1)c1ccc(C(=O)NC(CCC(=O)O)C(=O)O)cc1` (stereo unspecified), for which the IC50 was 0.01 µM in [6]; more than 10000 µM in assay [7]; 0.0014 µM in assay [1]; more than 10000 µM in [8]; 20 µM in assay [10]; 0.014 µM in assay [11]. Moreover, in assay [16], the IC50 was 0.21 µM. Further, the MST in assay [17] came to 16.6 days; in assay [30] it was 22.9 days; in assay [31], 19.8 days. For the same compound, the Km in [2] stood at 3.2 µM; in [3], 2.4 µM; in [9], 2.1 µM; in assay [13], 385 µM. Also, the results for the Weight at term in assay [29], in assay [19] and in assay [33] were 22.4 g, 22.3 g and 23.9 g, respectively. The ILS at 288 mg/kg in assay [32] is 67%; in assay [34] it was 143%. This compound also had a k in [4] of 0.26 min⁻¹. Besides, affinity in assay [5] was put at a Ki of 500 pM. The ILS at 36 mg/kg in [35] was 129%.
